ChEMBL document CHEMBL3885881, “DrugMatrix”

Organism: Rattus norvegicus
Experiment: DrugMatrix - Regimen: Daily Repeat
Type: toxicity, organism-based, Sprague-Dawley
Set-up: regimen Daily Repeat, gender Male, age 6-8 weeks
Conditions: in vivo, po, 1868 mg/kg, route oral GAVAGE, dose level High, vehicle .5 % CMC; for PLATELET COUNT / ABSOLUTE BASOPHIL / ABSOLUTE EOSINOPHIL / ABSOLUTE LYMPHOCYTE / ABSOLUTE MONOCYTE / ABSOLUTE SEGMENTED NEUTROPHIL / BASOPHIL / EOSINOPHIL / ERYTHROCYTE COUNT / HEMATOCRIT / HEMOGLOBIN / LEUKOCYTE COUNT / LYMPHOCYTE / MEAN CORPUSCULAR HEMOGLOBIN / MEAN CORPUSCULAR HEMOGLOBIN CONCENTRATION / MEAN CORPUSCULAR VOLUME / MONOCYTE / NEUTROPHIL / NUCLEATED RED BLOOD CELLS: tissue Blood; for ALANINE AMINOTRANSFERASE / ALBUMIN / ALKALINE PHOSPHATASE / ASPARTATE AMINOTRANSFERASE / BLOOD UREA NITROGEN / CARBON DIOXIDE / CHLORIDE / CHOLESTEROL / CREATININE / GLUCOSE / LACTATE DEHYDROGENASE / LIPASE / PHOSPHORUS / POTASSIUM / SODIUM / TOTAL BILIRUBIN / URIC ACID / TOTAL PROTEIN: tissue Plasma

CC(=O)OCc1ccccc1 [E1501]
PLATELET COUNT (120 h, time 5 day): 934.67 x10E3/uL | ALANINE AMINOTRANSFERASE (120 h, time 5 day): 127 u/L | ALBUMIN (120 h, time 5 day): 4.53 G/DL | ALKALINE PHOSPHATASE (120 h, time 5 day): 336 u/L | ASPARTATE AMINOTRANSFERASE (120 h, time 5 day): 386 u/L | BLOOD UREA NITROGEN (120 h, time 5 day): 22 mg/dL | CARBON DIOXIDE (120 h, time 5 day): 30 mmol/L | CHLORIDE (120 h, time 5 day): 99.67 MEQ/L | CHOLESTEROL (120 h, time 5 day): 65 mg/dL | CREATININE (120 h, time 5 day): 0.28 mg/dL | GLUCOSE (120 h, time 5 day): 167 mg/dL | LACTATE DEHYDROGENASE (120 h, time 5 day): 574 u/L | LIPASE (120 h, time 5 day): 9.67 u/L | PHOSPHORUS (120 h, time 5 day): 13.07 mg/dL | POTASSIUM (120 h, time 5 day): 6.24 MEQ/L | SODIUM (120 h, time 5 day): 148.47 MEQ/L | TOTAL BILIRUBIN (120 h, time 5 day): 0.17 mg/dL | URIC ACID (120 h, time 5 day): 1.83 mg/dL | ABSOLUTE BASOPHIL ([…], time 11 day): 0 CELLS/uL | ABSOLUTE EOSINOPHIL ([…], time 11 day): 0 CELLS/uL | ABSOLUTE LYMPHOCYTE ([…], time 11 day): 4840 CELLS/uL | ABSOLUTE MONOCYTE ([…], time 11 day): 440 CELLS/uL | ABSOLUTE SEGMENTED NEUTROPHIL ([…], time 11 day): 3520 CELLS/uL | BASOPHIL ([…], time 11 day): 0% | EOSINOPHIL ([…], time 11 day): 0% | ERYTHROCYTE COUNT ([…], time 11 day): 6.27 x10E6/uL | HEMATOCRIT ([…], time 11 day): 37.6% | HEMOGLOBIN ([…], time 11 day): 13.8 G/DL | LEUKOCYTE COUNT ([…], time 11 day): 8.8 x10E3/uL | LYMPHOCYTE ([…], time 11 day): 55% | MEAN CORPUSCULAR HEMOGLOBIN ([…], time 11 day): 22 pg | MEAN CORPUSCULAR HEMOGLOBIN CONCENTRATION ([…], time 11 day): 36.7 G/DL | MEAN CORPUSCULAR VOLUME ([…], time 11 day): 60 fL | MONOCYTE ([…], time 11 day): 5% | NEUTROPHIL ([…], time 11 day): 40% | NUCLEATED RED BLOOD CELLS ([…], time 11 day): 0 /100WBC | PLATELET COUNT ([…], time 11 day): 822 x10E3/uL | ABSOLUTE BASOPHIL ([…], time 14 day): 0 CELLS/uL | ABSOLUTE EOSINOPHIL ([…], time 14 day): 388 CELLS/uL | ABSOLUTE LYMPHOCYTE ([…], time 14 day): 14397 CELLS/uL | ABSOLUTE MONOCYTE ([…], time 14 day): 529.5 CELLS/uL | ABSOLUTE SEGMENTED NEUTROPHIL ([…], time 14 day): 1785.5 CELLS/uL | BASOPHIL ([…], time 14 day): 0% | EOSINOPHIL ([…], time 14 day): 2% | ERYTHROCYTE COUNT ([…], time 14 day): 6.34 x10E6/uL | HEMATOCRIT ([…], time 14 day): 38% | HEMOGLOBIN ([…], time 14 day): 13.85 G/DL | LEUKOCYTE COUNT ([…], time 14 day): 17.1 x10E3/uL | LYMPHOCYTE ([…], time 14 day): 85% | MEAN CORPUSCULAR HEMOGLOBIN ([…], time 14 day): 21.9 pg | MEAN CORPUSCULAR HEMOGLOBIN CONCENTRATION ([…], time 14 day): 36.35 G/DL | MEAN CORPUSCULAR VOLUME ([…], time 14 day): 60.15 fL | MONOCYTE ([…], time 14 day): 3.5% | NEUTROPHIL ([…], time 14 day): 9.5% | NUCLEATED RED BLOOD CELLS ([…], time 14 day): 0 /100WBC | PLATELET COUNT ([…], time 14 day): 722 x10E3/uL | ALANINE AMINOTRANSFERASE ([…], time 11 day): 128 u/L | ALBUMIN ([…], time 11 day): 3.9 G/DL | ALKALINE PHOSPHATASE ([…], time 11 day): 284 u/L | ASPARTATE AMINOTRANSFERASE ([…], time 11 day): 640 u/L | BLOOD UREA NITROGEN ([…], time 11 day): 44 mg/dL | CARBON DIOXIDE ([…], time 11 day): 31 mmol/L | CHLORIDE ([…], time 11 day): 95 MEQ/L | CHOLESTEROL ([…], time 11 day): 70 mg/dL | CREATININE ([…], time 11 day): 0.26 mg/dL | GLUCOSE ([…], time 11 day): 191 mg/dL | LACTATE DEHYDROGENASE ([…], time 11 day): 656 u/L | LIPASE ([…], time 11 day): 9 u/L | PHOSPHORUS ([…], time 11 day): 14.5 mg/dL | POTASSIUM ([…], time 11 day): 4.9 MEQ/L | SODIUM ([…], time 11 day): 146.3 MEQ/L | TOTAL BILIRUBIN ([…], time 11 day): 0.1 mg/dL | TOTAL PROTEIN ([…], time 11 day): 5.4 G/DL | URIC ACID ([…], time 11 day): 1.7 mg/dL | ALANINE AMINOTRANSFERASE ([…], time 14 day): 76.5 u/L | ALBUMIN ([…], time 14 day): 4.3 G/DL | ALKALINE PHOSPHATASE ([…], time 14 day): 267 u/L | ASPARTATE AMINOTRANSFERASE ([…], time 14 day): 238 u/L | BLOOD UREA NITROGEN ([…], time 14 day): 19 mg/dL | CARBON DIOXIDE ([…], time 14 day): 21.5 mmol/L | CHLORIDE ([…], time 14 day): 102.5 MEQ/L | CHOLESTEROL ([…], time 14 day): 79 mg/dL | CREATININE ([…], time 14 day): 0.27 mg/dL | GLUCOSE ([…], time 14 day): 207 mg/dL | LACTATE DEHYDROGENASE ([…], time 14 day): 251.5 u/L | LIPASE ([…], time 14 day): 9 u/L | PHOSPHORUS ([…], time 14 day): 11.95 mg/dL | POTASSIUM ([…], time 14 day): 5.28 MEQ/L | SODIUM ([…], time 14 day): 152.2 MEQ/L | TOTAL BILIRUBIN ([…], time 14 day): 0.25 mg/dL | TOTAL PROTEIN ([…], time 14 day): 6.5 G/DL | URIC ACID ([…], time 14 day): 1.95 mg/dL
